A short description of experiment [1]: acute food intake experiment in rats. The format is in vivo. The protocol:
An acute experiment with rats has been conducted recently after complying with Swedish Ethical regulations. Seven groups of rats (n=4-5) were given an acute test dose (100-200 mg/kg) of the control vehicle (rapeseed oil) and test conjugates. Part of the results is shown here in FIG. 4.

The nature of experiment [2]: antioxidant (antiradical) activity using DPPH radical. The protocol: The antioxidant (AO) activity of DAG-DHLA was determined using DPPH. radical following the published methods (Brand-Williams, W. et al. (1995). Lebensm. Wiss. U.-Technol. 28:25-30).
Antioxidant solution in toluene (0.1 mL) was added to 3.9 mL of a 6×10^−5 mol/L toluene DPPH. solution. Absorbance was determined at 515 nm at 0 min, and every 30 min until the reaction reached a plateau. For each DAG-DHLA concentration tested, the reaction kinetics was plotted. From this graph, the percentage of DPPH. remaining at the steady state was recorded and the values transferred onto another graph showing the percentage of residual DPPH. at the steady state as a function of the molar ratio of antioxidant to DPPH..

Molecules are shown by their SMILES.

The values that follow come from US8629175B2, “Functional food additives” (priority 2009, dated 2014).

For `CCCCCCCC/C=C\CCCCCCCC(=O)OCC(COC(=O)CCCCCCC/C=C\CCCCCCCC)OC(=O)CCCCC(S)CCS` (stereo not drawn) [compound 2, 1,3-Dioleoyl-2-dihydrolipoate-sn-glycerol], the acute food intake result in experiment [1] (acute test dose 200 mg/kg, after 4 hours, compared to vehicle (rapeseed oil), FIG. 4) is reported as “seems to block food intake”. Further, the “EC50 (Efficient concentration), amount of antioxidant necessary to decrease the initial DPPH. concentration by 50%” value in experiment [2] (6×10^−5 mol/L DPPH. in toluene, steady state, 515 nm) is given as 0.21 (mol/L) AO/(mol/L) DPPH. Also, in experiment [2] (DPPH. in toluene), the “Number of reduced DPPH. (1/EC100), DPPH. moles reduced by one mole of antioxidant” value stood at 2.34. In addition, the Kinetic behaviour result in experiment [2] (reaction with DPPH. in toluene, absorbance at 515 nm) is reported as “Rapid”.

Regarding `CCCCCCCC/C=C\CCCCCCCC(=O)OCC(COC(=O)CCCCCCC/C=C\CCCCCCCC)OC(=O)CCCCC1CCSS1` (stereo not drawn) [compound 1, 1,3-Dioleoyl-2-lipoyl-sn-glycerol], in experiment [1] (acute test dose (100-200 mg/kg), compared with the DAG-DHLA result), the acute food intake result was “Rather similar result”. Moreover, in experiment [2] (DPPH. in toluene, in parallel, compared with DAG-DHLA), the “antioxidant activity (in words)” value is recorded as “negligible antioxidant activity”.
